Assay results: US8435978B2, “Substituted sulfonamide compounds” (Gruenenthal GmbH, priority 2006, dated 2013)
Structures can show the parent of a compound that is named as a salt. Where two headings read alike, the source gives them in different places.

Tests used:
B1R receptor of the rat = target: T1, B1R receptor of the rat (Rattus norvegicus, UniProt P97583); assay: Functional study on the bradykinin receptor 1 (B1R), FLIPR Ca2+ assay, rB1R cells; format: cell-based; settings: agonist Des-Arg9-bradykinin 100 nM, % inhibition compared with the maximum achievable inhibition; for inhibition at 10 µM: read-out: B1R Antagonism, rat [10 μM] % Inhibition
T1 construct: host or cells: CHO K1 cells (Chinese hamster ovary), stably transfected
T1 sequence (P97583 1-337): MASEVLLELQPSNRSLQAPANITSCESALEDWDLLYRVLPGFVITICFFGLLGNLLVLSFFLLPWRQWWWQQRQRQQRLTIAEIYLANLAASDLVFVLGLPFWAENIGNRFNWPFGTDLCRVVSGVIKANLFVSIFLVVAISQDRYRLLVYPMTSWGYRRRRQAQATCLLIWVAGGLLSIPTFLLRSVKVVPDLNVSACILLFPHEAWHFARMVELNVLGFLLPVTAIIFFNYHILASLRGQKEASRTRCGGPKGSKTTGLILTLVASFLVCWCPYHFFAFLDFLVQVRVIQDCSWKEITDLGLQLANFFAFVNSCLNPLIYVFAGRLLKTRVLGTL
Procedure, shortened: (§1)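 Cells were dye-loaded 60 min at 37 °C, equilibrated 20 min at room temperature, then given 10 μM compound. Ten minutes later the species-matched agonist was added (0.5 nM Lys-Des-Arg9-bradykinin, human; 100 nM Des-Arg9-bradykinin, rat) and Ca2+ influx suppression expressed as % of maximum inhibition.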

human B1R receptor = target: T2, human B1R receptor (Homo sapiens, UniProt P46663); assay: Functional study on the bradykinin receptor 1 (B1R), FLIPR Ca2+ assay, hB1R cells; format: cell-based; settings: agonist Lys-Des-Arg9-bradykinin 0.5 nM, % inhibition compared with the maximum achievable inhibition; for inhibition at 10 µM: read-out: B1R Antagonism, human [10 μM] % Inhibition
T2 construct: host or cells: CHO K1 cells (Chinese hamster ovary), stably transfected
T2 sequence (P46663 1-353): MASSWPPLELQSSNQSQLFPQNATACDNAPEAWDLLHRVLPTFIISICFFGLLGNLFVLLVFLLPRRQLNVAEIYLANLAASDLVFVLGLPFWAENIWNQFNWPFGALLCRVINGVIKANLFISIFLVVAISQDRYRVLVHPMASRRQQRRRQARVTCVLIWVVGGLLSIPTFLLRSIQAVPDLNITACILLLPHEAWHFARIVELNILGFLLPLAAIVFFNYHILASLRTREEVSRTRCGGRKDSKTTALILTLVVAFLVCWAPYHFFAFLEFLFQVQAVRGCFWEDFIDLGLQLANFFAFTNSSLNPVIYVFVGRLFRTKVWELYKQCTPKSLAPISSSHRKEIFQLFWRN
Procedure, shortened: as §1

[1] = test substance 10 μM, rB1R CHO K1 cells
[2] = test substance 10 μM, hB1R CHO K1 cells

Row | SMILES | inhibition at 10 µM (B1R receptor of the rat; CHO-K1, test substance 10 μM) [%] | inhibition at 10 µM (human B1R receptor; CHO-K1, test substance 10 μM) [%] | further results
1 | COc1cc(C)c(S(=O)(=O)N2CCCCC2COCC(=O)N2CCc3cnccc3C2)c(C)c1 (stereo not shown) [Example 96, 1-(3,4-dihydro-2,6-naphthyridin-2(1H)-yl)-2-((1-(4-methoxy-2,6-dimethylphenyl-sulfonyl)piperidin-2-yl)methoxy)ethanone hydrochloride] | – | – | inhibition at 10 µM (B1R receptor of the rat; [1]): 91.3%; inhibition at 10 µM (human B1R receptor; [2]): 105%
2 | COc1cc(C)c(S(=O)(=O)N2CCCCC2COCC(=O)N2CCC(N3CCN4CCCCC4C3)CC2)c(C)c1.Cl.Cl (stereo not shown) [Example 99] | – | – | B1R Antagonism, rat [10 μM] % Inhibition (B1R receptor of the rat; [1]): 100.08%; B1R Antagonism, human [10 μM] % Inhibition (human B1R receptor; [2]): 103.76%
3 | COc1cc(C)c(S(=O)(=O)N2CCCCC2COCC(=O)N2CCC(N3CCc4cnccc4C3)CC2)c(C)c1 (stereo not shown) [Example 100, 1-(4-(3,4-dihydro-2,6-naphthyridin-2(1H)-yl)piperidin-1-yl)-2-((1-(4-methoxy-2,6-dimethylphenylsulfonyl)piperidin-2-yl)methoxy)ethanone] | 102 | 104 | –
4 | COc1cc(C)c(S(=O)(=O)N2CCCCC2COCC(=O)N2CCN(C(=O)OC(C)(C)C)CC2)c(C)c1 (stereo not shown) [Example 101, tert-butyl 4-(2-((1-(4-methoxy-2,6-dimethylphenylsulfonyl)piperidin-2-yl)methoxy)acetyl)piperazin-1-carboxylate] | 100 | 100 | –
5 | COc1cc(C)c(S(=O)(=O)N2CCCCC2COCC(=O)N2CCNCC2)c(C)c1 (stereo not shown) [Example 102, 2-((1-(4-methoxy-2,6-dimethylphenylsulfonyl)piperidin-2-yl)methoxy)-1-(piperazin-1-yl)ethanone hydrochloride] | 100 | 104 | –
6 | COc1cc(C)c(S(=O)(=O)N2CCCCC2COCC(=O)N2CCC(c3nc(-c4ccncc4)no3)CC2)c(C)c1 (stereo not shown) [Example 103, 2-((1-(4-methoxy-2,6-dimethylphenylsulfonyl)piperidin-2-yl)methoxy)-1-(4-(3-(pyridin-4-yl)-1,2,4-oxadiazol-5-yl)piperidin-1-yl)ethanone] | 100 | 105 | –
7 | COc1cc(C)c(S(=O)(=O)N2CCCCC2COCC(=O)N2CCN(C3CCOCC3)CC2)c(C)c1 (stereo not shown) [Example 104, 2-((1-(4-methoxy-2,6-dimethylphenylsulfonyl)piperidin-2-yl)methoxy)-1-(4-(tetrahydro-2H-pyran-4-yl)piperazin-1-yl)ethanone] | 101 | 105 | –
8 | COc1cc(C)c(S(=O)(=O)N2CCCCC2COCC(=O)N2CCN(C3CCC(C)CC3)CC2)c(C)c1 (stereo not shown) [Example 105, 2-((1-(4-methoxy-2,6-dimethylphenylsulfonyl)piperidin-2-yl)methoxy)-1-(4-(4-methylcyclohexyl)piperazin-1-yl)ethanone] | 100 | 106 | –
9 | COc1cc(C)c(S(=O)(=O)N2CCCCC2COCC(=O)N2CCN(CC3CCN(C)CC3)CC2)c(C)c1 (stereo not shown) [Example 106, 2-((1-(4-methoxy-2,6-dimethylphenylsulfonyl)piperidin-2-yl)methoxy)-1-(4-((1-methylpiperidin-4-yl)methyl)piperazin-1-yl)ethanone dihydrochloride] | 103 | 103 | –
10 | Cc1cc(C)c(S(=O)(=O)N2CCCCC2COCC(=O)N2CCN(C3CCN(C)CC3)CC2)c(C)c1 (stereo not shown) [Example 107, 2-((1-(mesitylsulfonyl)piperidin-2-yl)methoxy)-1-(4-(1-methylpiperidin-4-yl)piperazin-1-yl)ethanone] | 102 | 102 | –
11 | CN1CCC(N2CCN(C(=O)COCC3CCCCN3S(=O)(=O)c3c(Cl)cc(C(F)(F)F)cc3Cl)CC2)CC1 (stereo not shown) [Example 108, 2-((1-(2,6-dichloro-4-(trifluoromethyl)phenylsulfonyl)piperidin-2-yl)methoxy)-1-(4-(1-methylpiperidin-4-yl)piperazin-1-yl)ethanone] | 102 | 102 | –
12 | Cc1cccc(Cl)c1S(=O)(=O)N1CCCCC1COCC(=O)N1CCN(C2CCN(C)CC2)CC1 (stereo not shown) [Example 109, 2-((1-(2-chloro-6-methylphenylsulfonyl)piperidin-2-yl)methoxy)-1-(4-(1-methylpiperidin-4-yl)piperazin-1-yl)ethanone] | 102 | 103 | –
13 | CN1CCC(N2CCN(C(=O)COCC3CCCCN3S(=O)(=O)c3cccc4ccccc34)CC2)CC1 (stereo not shown) [Example 110, 1-(4-(1-methylpiperidin-4-yl)piperazin-1-yl)-2-((1-(naphthalen-1-ylsulfonyl)piperidin-2-yl)methoxy)ethanone] | 102 | 102 | –
14 | CN1CCC(N2CCN(C(=O)COCC3CCCCN3S(=O)(=O)c3ccc4ccccc4c3)CC2)CC1 (stereo not shown) [Example 111, 1-(4-(1-methylpiperidin-4-yl)piperazin-1-yl)-2-((1-(naphthalen-2-ylsulfonyl)piperidin-2-yl)methoxy)ethanone] | 101 | 91.9 | –
15 | COc1cc(C)c(S(=O)(=O)N2CCCCC2COCC(=O)N2CCC(N3CCN(C)CC3)CC2)c(C)c1 (stereo not shown) [Example 112, 2-((1-(4-methoxy-2,6-dimethylphenylsulfonyl)piperidin-2-yl)methoxy)-1-(4-(4-methylpiperazin-1-yl)piperidin-1-yl)ethanone hydrochloride] | 102 | 102 | –
16 | COc1cc(C)c(S(=O)(=O)N2CCCCC2COCC(=O)N2CCN(c3ncnc4ccsc34)CC2)c(C)c1 (stereo not shown) [Example 113, 2-((1-(4-methoxy-2,6-dimethylphenylsulfonyl)piperidin-2-yl)methoxy)-1-(4-(thieno[3,2-d]pyrimidin-4-yl)piperazin-1-yl)ethanone] | 97.1 | 99.2 | –
17 | Cc1cc(S(=O)(=O)N2CCCCC2COCC(=O)N2CCN(C3CCN(C)CC3)CC2)c(C)cc1Cl (stereo not shown) [Example 114, 2-((1-(4-chloro-2,5-dimethylphenylsulfonyl)piperidin-2-yl)methoxy)-1-(4-(1-methylpiperidin-4-yl)piperazin-1-yl)ethanone dihydrochloride] | 103 | 102 | –
18 | CN1CCC(N2CCN(C(=O)COCC3CCCCN3S(=O)(=O)c3ccc(Cl)c(C(F)(F)F)c3)CC2)CC1 (stereo not shown) [Example 115, 2-((1-(4-chloro-3-(trifluoromethyl)phenylsulfonyl)piperidin-2-yl)methoxy)-1-(4-(1-methylpiperidin-4-yl)piperazin-1-yl)ethanone] | 58.1 | 102 | –
19 | COc1cc(C)c(S(=O)(=O)N2CCCCC2COCC(=O)N2CCC(=O)CC2)c(C)c1 (stereo not shown) [Example 116, 1-(2-((1-(4-methoxy-2,6-dimethylphenylsulfonyl)piperidin-2-yl)methoxy)acetyl)piperidin-4-one] | – | – | inhibition at 10 µM (B1R receptor of the rat; [1]): 101%; inhibition at 10 µM (human B1R receptor; [2]): 74.2%
20 | COc1cc(C)c(S(=O)(=O)N2CCCCC2COCC(=O)N2CCN(Cc3nc4ccccc4[nH]3)CC2)c(C)c1 (stereo not shown) [Example 117, 1-(4-((1H-benzo[d]imidazol-2-yl)methyl)piperazin-1-yl)-2-((1-(4-methoxy-2,6-dimethylphenylsulfonyl)piperidin-2-yl)methoxy)ethanone] | 101 | 101 | –
